Experimental findings from PMC8199213, “Pharmacophore-Based Virtual Screening of Novel Competitive Inhibitors of the Neurodegenerative Disease Target Kynurenine-3-Monooxygenase” (Molecules, 2021) are described below.

Each structure is given as a SMILES string.

Test [1] addresses T1, human kynurenine-3-monooxygenase (hKMO) (Homo sapiens, UniProt O15229).
T1 construct: gene KMO; purified KMO protein with C-terminal His-FLAG-tag
In words: KMO NADPH-consumption assay (BPS Bioscience KMO Screening Kit), dose-response; positive control. The test is classed as biochemical.

For test [2], the target named is T1, human kynurenine-3-monooxygenase (hKMO). In words: KMO NADPH-consumption assay; […] inhibition at […], […] at […]. The class given is biochemical.

Broadly, the IC50 is the concentration that inhibits the measured activity by half.

T1 sequence (O15229 whole entry): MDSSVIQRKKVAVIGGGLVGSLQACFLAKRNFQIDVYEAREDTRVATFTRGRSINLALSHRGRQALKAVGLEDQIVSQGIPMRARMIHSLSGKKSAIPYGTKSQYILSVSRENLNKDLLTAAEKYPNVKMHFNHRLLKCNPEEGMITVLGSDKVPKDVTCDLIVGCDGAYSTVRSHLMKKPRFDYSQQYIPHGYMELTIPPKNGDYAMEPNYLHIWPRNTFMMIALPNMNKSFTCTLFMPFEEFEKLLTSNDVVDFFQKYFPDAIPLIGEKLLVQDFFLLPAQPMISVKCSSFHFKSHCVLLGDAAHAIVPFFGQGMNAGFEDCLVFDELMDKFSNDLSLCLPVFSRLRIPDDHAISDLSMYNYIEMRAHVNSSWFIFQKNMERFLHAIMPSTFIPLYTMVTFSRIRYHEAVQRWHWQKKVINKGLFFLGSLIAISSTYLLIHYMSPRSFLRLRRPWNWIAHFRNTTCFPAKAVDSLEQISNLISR

In test [1], `COc1ccc(S(=O)(=O)Nc2nc(-c3cccc([N+](=O)[O-])c3)cs2)cc1OC` [Ro 61-8084] gave a half-inhibitory concentration (IC50) of 727 ± 88 nM.
`Cc1cc2nc(CCC(=O)O)c(=O)[nH]c2cc1C` [VS6, F6548-0495]: the concentration for half-maximal inhibition (IC50) in test [2] is on record as less than 10 µM.
